Several values for one entry are separate records, joined by “and”; a condition that tells them apart may be missing. Equal values may be shown once.
How the values were obtained:
[1] = target: T1, Plasmodium falciparum lysyl t-RNA synthetase (Pf-KRS1) (Plasmodium falciparum, UniProt Q8IDJ8); assay: Pf-KRS1 inhibition biochemical assay (Kinase-Glo, ATP depletion); settings: read-out: Pf-KRS pIC50 (converted)
T1 construct: Pf KRS1-; made in house; host or cells: E. coli BL21 (DE3)
Source text: Plasmodium falciparum Lysine tRNA Synthetase (KRS1) Biochemical Assay Methodology.
Lysine tRNA Synthetase (KRS1) is an enzyme which catalyses the esterification of L-Lysine to the appropriate transfer ribonucleic acid (tRNA), to form an aminoacyl-tRNA. Once the tRNA is charged, a ribosome transfers the amino acid from the tRNA onto a growing peptide, according to the genetic code.
The substrates of this reaction are L-lysine, and adenosine triphosphate (ATP), the overall reaction is: amino acid+tRNA+ATP→aminoacyl-tRNA+AMP+PPi
In this overall reaction AMP is adenosine monophosphate and PP; is inorganic pyrophosphate. The reaction progression in a biochemical assay can be tracked by the depletion of one of the substrates, in the case of this invention, ATP. This was done using the proprietary assay kit, Kinase Glo® Assay which is a luminescent kinase assay platform suitable for monitoring kinase activities using up to 10 μm ATP which is commercially available from the Promega Corporation of Madison, Wis., USA. The Kinase-Glo® Assay was performed in a single well of a multiwell plate by adding a volume of Kinase-Glo® Reagent equal to the volume of a completed kinase reaction and measuring luminescence. The resulting luminescent signal is correlated with the amount of ATP present and is inversely correlated with the amount of kinase activity. As such by use of this assay methodology a reduction of the luminescent signal is relative to the reduction in ATP as the reaction progresses. A compound which inhibits the action of KRS will show no drop in the luminescent signal from assay controls.
Assays were performed using both Plasmodium falciparum and human KRS to assess any selectivity of various test compounds.
Test compounds were solubilized in DMSO at a top concentration of 10 mM and serially diluted 1 in 3 to achieve a range of final assay concentrations of 50 μM to 2.5 nM in 10 μl reaction volume.
KRS was diluted to a working concentration of 75 nM in assay buffer (25 mM HEPES, 25 mM KOH, 10 mM MgCl2.6H2O, 50 mM KCl), and the following ‘Master Mix’ prepared in assay buffer: 0.1 mg/ml BSA, 250 μM DTT, 200 μM Spermine, 0.05% NP-40, ATP 3 μM for Pf KRS1 (4 μM for Hs KRS1), 0.4 mg/ml tRNA from Yeast, 60 μM L-Lysine, 0.5 U/ml Pyrophosphatase.
Plates were incubated at room temperature for 5 h for Pf KRS (2.5 hrs for HsKRS), then the assay stopped by the addition of 10 μl of The Kinase-Glo® Reagent Assay was performed in a single well of a multiwell plate by adding a volume of Kinase-Glo® Reagent which is commercially available from the Promega Corporation of Madison, Wis., USA. The plates were incubated in the dark for a further 15 mins before being read for luminescence on a BMG PHERAstar® FSX plate reader which is a multi-mode reader for use in high-throughput screening available from BMG Labtech if Cary, N.C., USA. Data were analysed by calculating the percentage inhibition compared to the maximum and minimum assay controls. Concentration effect curves were fitted using nonlinear regression within ActivityBase and IC50 values were determined using standard protocols.

[2] = tested on: Plasmodium falciparum strain 3D7; assay: Plasmodium falciparum 3D7 in vitro growth inhibition (SYBRgreen I); format: cell-based; settings: for EC50: Plasmodium falciparum, 3D7, read-out: pEC50 for Pf 3D7 (converted)
Experimental: Parasite Cultures and Cytotoxicity Assay Methodology for Plasmodium falciparum. […] Growth inhibition of the Plasmodium falciparum cultures was quantified in a 10-point dose response curve with a 1 in 3 dilution series from a top assay concentration of 50 μM. This 384 well plate based fluorescence assay utilises the binding of SYBRgreen I (Thermo Fisher Scientific/Invitrogen cat. no. S7585) to double stranded DNA, which greatly increases the fluorescent signal at 528 nm after excitation at 485 nm. Mefloquine was used as a drug control to monitor the quality of the assay (Z′=0.6 to 0.8, where Z′ is a measure of the discrimination between the positive and negative controls on a screen plate). Dose-response curves were determined from a minimum of 3 independent experiments. Compound bioactivity was expressed as EC50, the effective concentration of compound causing 50% parasite death.

Cryptosporidium parvum = assay: In vitro Crytosporidium inhibition assay; format: cell-based; settings: Cryptosporidium parvum; read-out: Cryptosporidium parvum pEC50 (converted)
Source text: Assay Method for Measurement of In Vitro Inhibition of Crytosporidium.
These experiments were run in accordance with the method of Besssoff et. al. Antimicrob. Agents Chemother. 2013, 57:1804-1814. Results from these experiments are provided in the Experimental Results hereinafter.

Hep G2 = Hep G2 in-vitro cytotoxicity assay; format: cell-based; settings: Homo sapiens, HepG2, read-out: Hs HEPG2 pEC50 (converted)
Source text: In-vitro cytotoxicity studies can be carried out using Hep G2 (Human hepatocyte carcinoma, HPACC cat. no. 85011430) used as indicators for general mammalian cell toxicity. Hep G2 in-vitro cytotoxicity can be assessed using the assay procedure as described in “Use of a human-derived liver cell line for the detection of cytoprotective, antigenotoxic and cogenotoxic agents”, Volker Mersch-Sundermann, Siegfried Knasmüller, Xin-jiang Wu, Firouz Darroudi, Fekadu Kassie. J. Tox 198 (2004) 329-340) the contents of which are incorporated herein by reference.

Trypanosoma cruzi = Trypanosoma cruzi intracellular imaging assay; format: cell-based; settings: read-out: Trypanosoma cruzi pEC50 (converted)
Source text: Assay Method for Measurement of In Vitro Inhibition of Trypanosoma cruzi. […] These experiments were run in accordance with the method of Pena et. al., Scientific Reports 5, Article number: 8771 (2015). Results from these experiments are provided in the Experimental Results hereinafter.

T1 sequence (Q8IDJ8 entry or part of it, looked up, natural form): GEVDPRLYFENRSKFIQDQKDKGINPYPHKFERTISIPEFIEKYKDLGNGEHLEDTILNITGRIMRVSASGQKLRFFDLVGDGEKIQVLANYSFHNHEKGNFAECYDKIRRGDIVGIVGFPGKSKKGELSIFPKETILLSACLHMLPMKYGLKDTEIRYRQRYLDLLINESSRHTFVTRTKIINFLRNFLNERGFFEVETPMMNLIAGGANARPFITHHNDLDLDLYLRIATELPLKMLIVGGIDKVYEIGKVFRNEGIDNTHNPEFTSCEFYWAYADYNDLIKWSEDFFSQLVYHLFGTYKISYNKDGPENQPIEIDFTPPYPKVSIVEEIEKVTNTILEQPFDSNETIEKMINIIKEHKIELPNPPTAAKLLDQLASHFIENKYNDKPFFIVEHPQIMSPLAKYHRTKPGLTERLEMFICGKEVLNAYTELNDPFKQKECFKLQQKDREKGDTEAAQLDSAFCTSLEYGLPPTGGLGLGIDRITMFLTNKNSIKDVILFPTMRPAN

O=C(NCC1CCCCC1)c1cc(=O)c2ccc(O)cc2o1 [Example 4, N-(cyclohexylmethyl)-7-hydroxy-4-oxo-chromene-2-carboxamide]
IC50 [1]: 1000 nM | EC50 [2]: 1260 nM | EC50 (Cryptosporidium parvum): 1580 nM | EC50 (Hep G2): 50.1 µM

O=C(NCC1CCC(F)(F)CC1)c1cc(=O)c2ccccc2o1 [Example 21, N-[(4,4-difluorocyclohexyl)methyl]-4-oxo-chromene-2-carboxamide]
EC50 (Cryptosporidium parvum): 7940 nM | EC50 (Hep G2): 50.1 µM

O=C(NCC1(O)CCCCC1)c1cc(=O)c2ccccc2o1 [Example 27, N-[(1-hydroxycyclohexyl)methyl]-4-oxo-chromene-2-carboxamide]
IC50 [1]: 126 nM | EC50 [2]: 251 nM | EC50 (Cryptosporidium parvum): 316 nM | EC50 (Hep G2): 50.1 µM

O=C(NCC1(CO)CCCCC1)c1cc(=O)c2cc(F)ccc2o1 [Example 40, 6-fluoro-N-[[1-(hydroxymethyl)cyclohexyl]methyl]-4-oxo-chromene-2-carboxamide]
IC50 [1]: 251 nM | EC50 [2]: 794 nM | EC50 (Cryptosporidium parvum): 1580 nM | EC50 (Hep G2): 50.1 µM

O=C(NCC1(O)CCCCC1)c1cc(=O)c2cc(F)ccc2o1 [Example 41, 6-fluoro-N-[(1-hydroxycyclohexyl)methyl]-4-oxo-chromene-2-carboxamide]
IC50 [1]: 100 nM | EC50 [2]: 200 nM | EC50 (Cryptosporidium parvum): 501 nM | EC50 (Hep G2): 25.1 µM

C[C@H](NC(=O)c1cc(=O)c2cc(F)ccc2o1)C1CCCCC1 [Example 49A, (S)—N-(1-cyclohexylethyl)-6-fluoro-4-oxo-4H-chromene-2-carboxamide]
IC50 [1]: 126 nM | EC50 [2]: 398 nM | EC50 (Cryptosporidium parvum): 158 nM

O=C(NCC1(O)CCCCC1)c1cc(=O)c2cc(F)cc(F)c2o1 [Example 55, 6,8-difluoro-N-[(1-hydroxycyclohexyl)methyl]-4-oxo-chromene-2-carboxamide]
IC50 [1]: 200 nM | EC50 [2]: 398 nM | EC50 (Cryptosporidium parvum): 501 nM | EC50 (Hep G2): 50.1 µM

O=C(NCC1(O)CCC(F)(F)CC1)c1cc(=O)c2cc(F)cc(F)c2o1 [Example 56, N-((4,4-difluoro-1-hydroxycyclohexyl)methyl)-6,8-difluoro-4-oxo-4H-chromene-2-carboxamide]
IC50 [1]: 316 nM | EC50 [2]: 1580 nM | EC50 (Cryptosporidium parvum): 7940 nM

O=C(NCC1(O)CCC(F)(F)CC1)c1cc(=O)c2cc(O)ccc2o1 [Example 57, N-[(4,4-difluoro-1-hydroxy-cyclohexyl)methyl]-6-hydroxy-4-oxo-chromene-2-carboxamide]
IC50 [1]: 126 nM | EC50 [2]: 158 nM | EC50 (Cryptosporidium parvum): 5010 nM

O=C(O)CC1(CNC(=O)c2cc(=O)c3cc(F)ccc3o2)CCCCC1 [Example 57L, 2-(1-((6-fluoro-4-oxo-4H-chromene-2-carboxamido)methyl)cyclohexyl)acetic acid]
EC50 [2]: 794 nM | EC50 (Cryptosporidium parvum): 5010 nM | EC50 (Hep G2): 50.1 µM

O=C(NCC1CCCCC1)c1cc(=O)c2cccc(O)c2o1 [Example 67, N-(cyclohexylmethyl)-8-hydroxy-4-oxo-4H-chromene-2-carboxamide]
IC50 [1]: 63.1 nM | EC50 [2]: 63.1 nM | EC50 (Cryptosporidium parvum): 316 nM

COc1cc2c(=O)cc(C(=O)NCC3CCCCC3)oc2cc1F [Example 71, N-(cyclohexylmethyl)-7-fluoro-6-methoxy-4-oxo-4H-chromene-2-carboxamide]
IC50 [1]: 398 nM | EC50 [2]: 3160 nM | EC50 (Cryptosporidium parvum): 3980 nM

O=C(NCC1(O)CCCCC1)c1cc(=O)c2cc(Cl)cc(O)c2o1 [Example 73, 6-Chloro-8-hydroxy-N-((1-hydroxycyclohexyl)methyl)-4-oxo-4H-chromene-2-carboxamide]
IC50 [1]: 50.1 nM | EC50 (Cryptosporidium parvum): 39.8 nM | EC50 (Hep G2): 20 µM

O=C(NCC1CCC(F)(F)CC1)c1cc(=O)c2cc(F)cc(O)c2o1 [Example 75, N-((4,4-difluorocyclohexyl)methyl)-6-fluoro-8-hydroxy-4-oxo-4H-chromene-2-carboxamide]
IC50 [1]: 79.4 nM | EC50 [2]: 200 nM | EC50 (Cryptosporidium parvum): 794 nM | EC50 (Hep G2): 50.1 µM

O=C(NCC1(O)CCC(F)(F)CC1)c1cc(=O)c2cc(F)cc(O)c2o1 [Example 76A, N-((4,4-difluoro-1-hydroxycyclohexyl)methyl)-6-fluoro-8-hydroxy-4-oxo-4H-chromene-2-carboxamide]
IC50 [1]: 50.1 nM | EC50 [2]: 79.4 nM | EC50 (Cryptosporidium parvum): 3160 nM | EC50 (Hep G2): 50.1 µM

O=C(NCC1(O)CC2(CCC2)C1)c1cc(=O)c2cc(F)cc(O)c2o1 [Example 76D, 6-fluoro-8-hydroxy-N-((2-hydroxyspiro[3.3]heptan-2-yl)methyl)-4-oxo-4H-chromene-2-carboxamide]
IC50 [1]: 126 nM | EC50 [2]: 398 nM | EC50 (Cryptosporidium parvum): 3980 nM | EC50 (Hep G2): 50.1 µM

O=C(NCCCC1CCC1)c1cc(=O)c2cc(F)cc(O)c2o1 [Example 76G, N-(3-cyclobutylpropyl)-6-fluoro-8-hydroxy-4-oxo-4H-chromene-2-carboxamide]
IC50 [1]: 126 nM | EC50 [2]: 1580 nM | EC50 (Cryptosporidium parvum): 1260 nM | EC50 (Hep G2): 31.6 µM

O=C(NCC1CCC(F)(F)CC1)c1cc(=O)c2ccc(F)c(O)c2o1 [Example 79, N-((4,4-difluorocyclohexyl)methyl)-7-fluoro-8-hydroxy-4-oxo-4H-chromene-2-carboxamide]
IC50 [1]: 200 nM | EC50 (Cryptosporidium parvum): 794 nM | EC50 (Hep G2): 50.1 µM

CS(=O)(=O)Nc1cccc2c(=O)cc(C(=O)NCC3CCCCC3)oc12 [Example 84, N-(cyclohexylmethyl)-8-(methylsulfonamido)-4-oxo-4H-chromene-2-carboxamide]
IC50 [1]: 126 nM | EC50 [2]: 316 nM | EC50 (Cryptosporidium parvum): 631 nM | EC50 (Hep G2): 50.1 µM

Cc1c(C(=O)NCC2CCCCC2)oc2ccc(F)cc2c1=O [Example 91, N-(cyclohexylmethyl)-6-fluoro-3-methyl-4-oxo-4H-chromene-2-carboxamide]
IC50 [1]: 631 nM | pEC50 for Pf 3D7 [2]: 5.2 | EC50 [2]: 5010 nM | EC50 (Cryptosporidium parvum): 2510 nM

Nc1cc(F)cc2c(=O)cc(C(=O)NCC3(O)CCC(F)(F)CC3)oc12 [Example 93, 8-amino-N-[(4,4-difluoro-1-hydroxy-cyclohexyl)methyl]-6-fluoro-4-oxo-chromene-2-carboxamide]
IC50 [1]: 50.1 nM and 63.1 nM | EC50 (Cryptosporidium parvum): 501 nM | EC50 (Hep G2): 12.6 µM

Nc1cc(F)cc2c(=O)cc(C(=O)NCC3CCC(F)(F)CC3)oc12 [Example 94, 8-amino-N-[(4,4-difluorocyclohexyl)methyl]-6-fluoro-4-oxo-4H-chromene-2-carboxamide]
EC50 [2]: 50.1 nM | EC50 (Trypanosoma cruzi): 50.1 nM
